Test results reported in ChEMBL document CHEMBL1221236, “Discovery of a factor Xa inhibitor (3R,4R)-1-(2,2-difluoro-ethyl)-pyrrolidine-3,4-dicarboxylic acid 3-[(5-chloro-pyridin-2-yl)-amide] 4-[[2-fluoro-4-(2-oxo-2H-pyridin-1-yl)-phenyl]-amide] as a clinical candidate” (Bioorg Med Chem Lett, 2010).
Each block holds one molecule with its values, some of them ahead of it.

Assays:
[1] = Lipophilicity, log D of the compound at pH 7.4; format: physicochemical; details: buffer
[2] = Permeability of the compound by PAMPA; format: ADME; details: read-out: permeability
[3] = Half life in po dosed rat; format: ADME, organism-based; details: in vivo
[4] = Volume of distribution at steady state in cynomolgus monkey; format: ADME, organism-based, Macaca fascicularis; details: in vivo, read-out: Vdss
[5] = Half life in cynomolgus monkey; format: ADME, organism-based, Macaca fascicularis; details: in vivo
[6] = Oral bioavailability in rat; format: ADME, organism-based; details: in vivo
[7] = Clearance in rat; format: ADME, organism-based; details: in vivo
Cynomolgus monkey = assay: Dose normalized AUC in po dosed cynomolgus monkey; format: ADME, organism-based, Macaca fascicularis; details: in vivo
[8] = Volume of distribution at steady state in rat; format: ADME, organism-based; details: in vivo, read-out: Vdss
[9] = Oral bioavailability in cynomolgus monkey; format: ADME, organism-based, Macaca fascicularis; details: in vivo
[10] = Clearance in cynomolgus monkey; format: ADME, organism-based, Macaca fascicularis; details: in vivo
Phospholipidosis = assay: In vitro phospholipidosis; format: ADME, cell-based; details: human, hepg2
Rattus norvegicus = assay: Dose normalized AUC in po dosed rat; format: ADME, organism-based; details: in vivo
[11] = Dissociation constant, pKa of the compound; format: physicochemical

logD [1]: 1.19
Compound: COc1ccc(NC(=O)[C@H]2CN(S(C)(=O)=O)C[C@@H]2C(=O)Nc2ccc(-n3ccccc3=O)cc2F)cc1

logD [1]: 2.17
Compound: CS(=O)(=O)N1C[C@H](C(=O)Nc2ccc(Cl)cc2)[C@@H](C(=O)Nc2ccc(-n3ccccc3=O)cc2F)C1

logD [1]: 1.8
Compound: CC(=O)N1C[C@H](C(=O)Nc2ccc(Cl)cc2)[C@@H](C(=O)Nc2ccc(-n3ccccc3=O)cc2F)C1

logD [1]: 2.44
Compound: CCS(=O)(=O)N1C[C@H](C(=O)Nc2ccc(Cl)cc2)[C@@H](C(=O)Nc2ccc(-n3ccccc3=O)cc2F)C1

logD [1]: 1.8
Compound: O=C(Nc1ccc(Cl)cc1)[C@H]1CN(CCO)C[C@@H]1C(=O)Nc1ccc(-n2ccccc2=O)cc1F

logD [1]: 2.43
Compound: COC(=O)N1C[C@H](C(=O)Nc2ccc(Cl)cc2)[C@@H](C(=O)Nc2ccc(-n3ccccc3=O)cc2F)C1

logD [1]: 2.69
Compound: O=C(Nc1ccc(Cl)cc1)[C@H]1CN(CC(F)F)C[C@@H]1C(=O)Nc1ccc(-n2ccccc2=O)cc1F

logD [1]: 1.83
Compound: NS(=O)(=O)N1C[C@H](C(=O)Nc2ccc(Cl)cc2)[C@@H](C(=O)Nc2ccc(-n3ccccc3=O)cc2F)C1

logD [1]: 3.2
Compound: O=C(Nc1ccc(Cl)cc1)[C@H]1CN(CC(F)(F)F)C[C@@H]1C(=O)Nc1ccc(-n2ccccc2=O)cc1F

logD [1]: 2.68
Compound: O=C(Nc1ccc(Cl)cc1)[C@H]1CN(S(=O)(=O)CC(F)(F)F)C[C@@H]1C(=O)Nc1ccc(-n2ccccc2=O)cc1F

logD [1]: 2.62
Compound: CN(C)S(=O)(=O)N1C[C@H](C(=O)Nc2ccc(Cl)cc2)[C@@H](C(=O)Nc2ccc(-n3ccccc3=O)cc2F)C1

logD [1]: 2.81
Compound: CC(C)S(=O)(=O)N1C[C@H](C(=O)Nc2ccc(Cl)cc2)[C@@H](C(=O)Nc2ccc(-n3ccccc3=O)cc2F)C1

logD [1]: 2.57
Compound: CCOC(=O)N1C[C@H](C(=O)Nc2ccc(Cl)cc2)[C@@H](C(=O)Nc2ccc(-n3ccccc3=O)cc2F)C1

logD [1]: 2.78
Compound: O=C(Nc1ccc(Cl)cc1)[C@H]1CN(C(=O)N2CCCC2)C[C@@H]1C(=O)Nc1ccc(-n2ccccc2=O)cc1F

logD [1]: 3.06
Compound: CCCOC(=O)N1C[C@H](C(=O)Nc2ccc(Cl)cc2)[C@@H](C(=O)Nc2ccc(-n3ccccc3=O)cc2F)C1

logD [1]: 2.94
Compound: CCCS(=O)(=O)N1C[C@H](C(=O)Nc2ccc(Cl)cc2)[C@@H](C(=O)Nc2ccc(-n3ccccc3=O)cc2F)C1

More lines, now with the values behind:

Compound: CS(=O)(=O)N1C[C@H](C(=O)Nc2ccc(Cl)cc2)[C@@H](C(=O)Nc2ccc(N3CCOCC3=O)cc2)C1
Papp [2]: 4.6 nm/s

Compound: CS(=O)(=O)N1C[C@H](C(=O)Nc2ccc(Cl)cn2)[C@@H](C(=O)Nc2ccc(-n3ccccc3=O)cc2F)C1
logD [1]: 1.46

Compound: CCS(=O)(=O)N1C[C@H](C(=O)Nc2ccc(Cl)cn2)[C@@H](C(=O)Nc2ccc(-n3ccccc3=O)cc2F)C1
logD [1]: 1.77 | half-life [3]: 1.1 h | Vd [4]: 0.46 L/kg | half-life [5]: 1.9 h | bioavailability [6]: 24% | clearance [7]: 0.078 L/h/kg | AUC (Cynomolgus monkey): 0.23 µg·h/mL | Vd [8]: 0.04 L/kg | bioavailability [9]: 9% | clearance [10]: 0.33 L/h/kg | Phospholipidosis (Phospholipidosis): Not Active | AUC (Rattus norvegicus): 3.3 µg·h/mL | pKa [11]: 2.99

Compound: O=C(Nc1ccc(Cl)cn1)[C@H]1CN(CC(F)F)C[C@@H]1C(=O)Nc1ccc(-n2ccccc2=O)cc1F
logD [1]: 2.2 | half-life [3]: 1.3 h | Vd [4]: 0.54 L/kg | half-life [5]: 6.3 h | bioavailability [6]: 100% | clearance [7]: 0.126 L/h/kg | AUC (Cynomolgus monkey): 1.7 µg·h/mL | Vd [8]: 0.18 L/kg | bioavailability [9]: 65% | clearance [10]: 0.384 L/h/kg | Phospholipidosis (Phospholipidosis): Not Active | AUC (Rattus norvegicus): 10 µg·h/mL | pKa [11]: 4.79

Compound: O=C(Nc1ccc(Cl)cn1)[C@H]1CNC[C@@H]1C(=O)Nc1ccc(-n2ccccc2=O)cc1F
logD [1]: 0.63

Compound: CC(C)N1C[C@H](C(=O)Nc2ccc(Cl)cn2)[C@@H](C(=O)Nc2ccc(-n3ccccc3=O)cc2F)C1
logD [1]: 1.86 | half-life [3]: 2.9 h | Vd [4]: 1.6 L/kg | half-life [5]: 4.7 h | bioavailability [6]: 39% | clearance [7]: 0.252 L/h/kg | AUC (Cynomolgus monkey): 0.82 µg·h/mL | Vd [8]: 0.47 L/kg | bioavailability [9]: 80% | clearance [10]: 1.02 L/h/kg | Phospholipidosis (Phospholipidosis): Active | AUC (Rattus norvegicus): 0.9 µg·h/mL | pKa [11]: 7.55

Compound: COC(=O)N1C[C@H](C(=O)Nc2ccc(Cl)cn2)[C@@H](C(=O)Nc2ccc(-n3ccccc3=O)cc2F)C1
logD [1]: 2.02 | half-life [3]: 1.5 h | Vd [4]: 0.44 L/kg | half-life [5]: 5 h | bioavailability [6]: 100% | clearance [7]: 0.438 L/h/kg | AUC (Cynomolgus monkey): 6.7 µg·h/mL | Vd [8]: 0.42 L/kg | bioavailability [9]: 64% | clearance [10]: 0.108 L/h/kg | Phospholipidosis (Phospholipidosis): Not Active | AUC (Rattus norvegicus): 2.3 µg·h/mL | pKa [11]: 2.75

Compound: O=C(Nc1ccc(Cl)cn1)[C@H]1CN(CC(F)(F)F)C[C@@H]1C(=O)Nc1ccc(-n2ccccc2=O)cc1F
logD [1]: 2.62

Compound: CS(=O)(=O)N1C[C@H](C(=O)Nc2ccc3[nH]ccc3c2)[C@@H](C(=O)Nc2ccc(-n3ccccc3=O)cc2F)C1
logD [1]: 1.07

Compound: COc1ccc(NC(=O)[C@H]2CN(S(C)(=O)=O)C[C@@H]2C(=O)Nc2ccc(-n3ccccc3=O)cc2F)cc1Cl
logD [1]: 1.9

Compound: COc1ccc(NC(=O)[C@H]2CN(S(C)(=O)=O)C[C@@H]2C(=O)Nc2ccc(-n3ccccc3=O)cc2F)cc1F
logD [1]: 0.56

Compound: CS(=O)(=O)N1C[C@H](C(=O)Nc2ccc(OC(F)(F)F)cc2)[C@@H](C(=O)Nc2ccc(-n3ccccc3=O)cc2F)C1
logD [1]: 2.36

Compound: CS(=O)(=O)N1C[C@H](C(=O)Nc2ccc(Cl)c(F)c2)[C@@H](C(=O)Nc2ccc(-n3ccccc3=O)cc2F)C1
logD [1]: 2.37

Compound: CS(=O)(=O)N1C[C@H](C(=O)Nc2ccc3[nH]ncc3c2)[C@@H](C(=O)Nc2ccc(-n3ccccc3=O)cc2F)C1
logD [1]: 0.5
